Data reported in publication PMC7822874, “Chemoprotective antimalarials identified through quantitative high-throughput screening of Plasmodium blood and liver stage parasites” (Scientific Reports, 2021).
Like-named read-outs stand apart in the source and are kept apart here.

Key:
Format in all cases: cell-based, Plasmodium falciparum
Details in all cases: Plasmodium falciparum
[1] = test system: P. falciparum Dd2 Cytb F123L; assay: SYBR Green ABS proliferation assay, NCGC00473217 selected clone G08
Experimental: (§1) As resistance selection studies implicated the parasite cytochrome bc1 complex in mediating reduced parasite susceptibility to both NCGC00473217 and NCGC00374598, we leveraged these drug-selected parasites to test for altered drug response to a panel of antimalarial compounds.
(§2) The P. falciparum parasite Dd2 line was cultured in vitro using standard conditions. […] Tissue culture flasks and assay plates were incubated at 37 °C under a gas mixture of 5% CO2, 5% O2 and 90% N2. […] Significant differences were assessed using two-sided Student’s t-tests. All HTS assays were stopped and read at 72 h. Percent response values represent relative growth as judged by SYBR Green-I fluorescence intensity values normalized to controls.
(§3) Fresh uninfected RBCs (0.5% hematocrit) were added on day 7 and media was changed every other day. […] Resistant parasites were maintained under drug media at a volume of 50 mL until a high parasitemia (> 5%) was achieved. Aliquots of the bulk resistant cultures were frozen in cryovials before cloning by limiting dilution in 96-well plates (seeded at 0.25 or 0.5 parasites/well)[70]. After 3 weeks of cloning, we screened for positive wells by flow cytometry with SYBR Green-stained cells. […] Parasites were harvested by saponin lysis at the trophozoite stage and genomic DNA was extracted using the QIAamp DNA Blood Midi Kit (Qiagen, Germantown, MD)[71].

[2] = test system: P. falciparum Dd2 Cytb V259L; assay: SYBR Green ABS proliferation assay, NCGC00473217 selected clone F06
Experimental: as §1, §2, §3

[3] = test system: P. falciparum Dd2 Cytb A122D; assay: SYBR Green ABS proliferation assay, NCGC00473217 selected clone F12
Experimental: as §1, §2, §3

[4] = test system: P. falciparum Dd2 Cytb G131S; assay: SYBR Green ABS proliferation assay, NCGC00374598 selected clone C11
Procedure, shortened: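 Drug-selected Dd2 clones bearing the cytochrome b mutation were cultured at 37 °C under 5% CO2, 5% O2, 90% N2. Growth was read at 72 h by SYBR Green-I fluorescence, normalized to controls as percent response.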

[5] = DD2, […], averaged from three independent replicates, top concentration 29 µM, read-out: Average AC50 (Log[M]), NCGC00473217 clone G08 (Cytb F123L) (converted)
[6] = DD2, […], averaged from three independent replicates, top concentration 29 µM, read-out: Average AC50 (Log[M]), NCGC00473217 clone F06 (Cytb V259L) (converted)
[7] = DD2, […], averaged from three independent replicates, top concentration 29 µM, read-out: Average AC50 (Log[M]), NCGC00473217 clone F12 (Cytb A122D) (converted)
[8] = DD2, […], averaged from three independent replicates, top concentration 29 µM, read-out: Average AC50 (Log[M]), NCGC00374598 clone C11 (Cytb G131S) (converted)
[9] = DD2, cytochrome b mutant line, fifth value triple, c15, […], read-out: log AC50, mean (converted)
[10] = DD2, cytochrome b mutant line, third value triple, c9, […], read-out: log AC50, mean (converted)
[11] = DD2, cytochrome b mutant line, fourth value triple, c12, […], read-out: log AC50, mean (converted)
[12] = DD2, cytochrome b mutant line, second value triple, c6, […], read-out: log AC50, mean (converted)

## CCCN1C(CC(C)C)=N[S+](=O)([O-])c2cc(NC(C)=O)ccc21 [NCGC00521093-01]
[1]; [5]
  AC50: 7.96e-06 M
[2]; [6]
  AC50: 8.93e-06 M
[3]; [7]
  AC50: 1.04e-05 M
[4]; [8]
  AC50: 2e-05 M

## O=C(c1cccc(Cl)c1)N1CCc2nc(C3CC3)nc(-c3ccc(O)cc3)c2CC1 [NCGC00480367-01]
[1]; [9]
  AC50: 1.28e-06 M
[2]; [10]
  AC50: 2.66e-06 M
[3]; [11]
  AC50: 1.55e-05 M
[4]; [12]
  AC50: 1.06e-05 M

## CCCN1C(Cc2ccccc2)=N[S+](=O)([O-])c2cc(NC(=O)c3cccs3)ccc21 [NCGC00532337-01]
[1]; [9]
  AC50: 1e-05 M
[2]; [10]
  AC50: 7.96e-07 M
[3]; [11]
  AC50: 7.1e-06 M
[4]; [12]
  AC50: 3.05e-06 M

## COc1ccc(-c2nc(C3CC3)nc3c2CCN(Cc2ccccc2)CC3)cc1 [NCGC00374622-01]
[1]; [9]
  AC50: 6.68e-06 M
[2]; [10]
  AC50: 6.93e-06 M
[3]; [11]
  AC50: 6.93e-06 M
[4]; [12]
  AC50: 6.43e-06 M

## COc1ccc(-c2nc(C3CC3)nc3c2CCN(S(=O)(=O)c2ccccc2)CC3)cc1 [NCGC00374642-01]
[1]; [9]
  AC50: 1.61e-05 M
[2]; [10]
  AC50: 1.61e-05 M
[3]; [11]
  AC50: 1.44e-05 M
[4]; [12]
  AC50: 1.33e-05 M

## CCCN1C(CC(C)C)=N[S+](=O)([O-])c2cc(NC(=O)c3ccc(F)c(Br)c3)ccc21 [NCGC00531767-01]
[1]; [9]
  AC50: 6.32e-06 M
[2]; [10]
  AC50: 1.06e-06 M
[3]; [11]
  AC50: 8.61e-06 M
[4]; [12]
  AC50: 2.08e-06 M

## CCCN1C(CC(C)C)=N[S+](=O)([O-])c2cc(NC(=O)c3cccnn3)ccc21 [NCGC00521144-01]
[1]; [5]
  AC50: 1.12e-05 M
[2]; [6]
  AC50: 2.82e-06 M
[3]; [7]
  AC50: 2.67e-06 M
[4]; [8]
  AC50: 2e-05 M

## COc1ccc(-c2nc(C(C)C)nc3c2CCN(C(=O)Cc2ccc(F)cc2)CC3)cc1 [NCGC00479517-01]
[1]; [9]
  AC50: 1.06e-05 M
[2]; [10]
  AC50: 1.88e-05 M
[3]; [11]
  AC50: 1.68e-05 M
[4]; [12]
  AC50: 1.5e-05 M

## COc1cc(OC)c(OC)cc1CN1CCc2nc(N(C)C)[nH]c(=O)c2CC1 [NCGC00440589-01]
[1]; [9]
  AC50: 2.03e-06 M
[2]; [10]
  AC50: 2.76e-06 M
[3]; [11]
  AC50: 1.61e-06 M
[4]; [12]
  AC50: 2.66e-06 M

## CCCN1C(CC(C)C)=N[S+](=O)([O-])c2cc(NC(=O)Nc3cccs3)ccc21 [NCGC00537523-01]
[1]; [9]
  AC50: 9.66e-06 M
[2]; [10]
  AC50: 5.22e-06 M
[3]; [11]
  AC50: 9.29e-06 M
[4]; [12]
  AC50: 2.67e-06 M

## COc1ccc(-c2nc(C(C)C)nc3c2CCN(C(=O)Nc2ccccc2)CC3)cc1 [NCGC00479509-01]
[1]; [9]
  AC50: 1.23e-05 M
[2]; [10]
  AC50: 1.61e-05 M
[3]; [11]
  AC50: 1.44e-05 M
[4]; [12]
  AC50: 1.19e-05 M

## Cc1cc(CN2CCc3nc(C(C)C)nc(-c4ccc(Cl)cc4)c3CC2)no1 [NCGC00374612-01]
[1]; [9]
  AC50: 9.79e-06 M
[2]; [10]
  AC50: 1.38e-05 M
[3]; [11]
  AC50: 1.68e-05 M
[4]; [12]
  AC50: 1.55e-05 M

## COc1ccc(CN2CCc3nc(C(C)C)nc(-c4ccc(O)cc4)c3CC2)cc1 [NCGC00480318-01]
[1]; [9]
  AC50: 9.08e-06 M
[2]; [10]
  AC50: 9.08e-06 M
[3]; [11]
  AC50: 7.78e-06 M
[4]; [12]
  AC50: 5.11e-06 M

## COc1ccc(-c2nc(C3CC3)nc3c2CCN(Cc2ccc(C#N)cc2)CC3)cc1 [NCGC00374656-01]
[1]; [9]
  AC50: 8.09e-06 M
[2]; [10]
  AC50: 1.14e-05 M
[3]; [11]
  AC50: 8.41e-06 M
[4]; [12]
  AC50: 7.5e-06 M

## CCCN1C(CC(C)C)=N[S+](=O)([O-])c2cc(NCc3cccs3)ccc21 [NCGC00531814-01]
[1]; [9]
  AC50: 1.59e-05 M
[2]; [10]
  AC50: 1.78e-05 M
[3]; [11]
  AC50: 1.93e-05 M
[4]; [12]
  AC50: 1.59e-05 M

## CC(C)c1nc2c(c(-c3ccc(Cl)cc3)n1)CCN(C(=O)c1ccc(C(F)(F)F)cc1)CC2 [NCGC00374584-01]
[1]; [9]
  AC50: 8.41e-06 M
[2]; [10]
  AC50: 7.5e-06 M
[3]; [11]
  AC50: 7.5e-06 M
[4]; [12]
  AC50: 6.93e-06 M

## CCCN1C(CC(C)C)=N[S+](=O)([O-])c2cc(NC(=O)c3cccc(OC)c3)ccc21 [NCGC00531773-01]
[1]; [9]
  AC50: 1.06e-05 M
[2]; [10]
  AC50: 7.67e-06 M
[3]; [11]
  AC50: 1e-05 M
[4]; [12]
  AC50: 3.56e-06 M

## CCc1nc2c(c(-c3ccc(O)cc3)n1)CCN(Cc1cccn1C)CC2 [NCGC00480312-01]
[1]; [9]
  AC50: 1.14e-05 M
[2]; [10]
  AC50: 1.74e-05 M
[3]; [11]
  AC50: 1.44e-05 M
[4]; [12]
  AC50: 1.88e-05 M

## CCCN1C(CC(C)C)=N[S+](=O)([O-])c2cc(NC(=O)c3ccc(SC)cc3)ccc21 [NCGC00531764-01]
[1]; [9]
  AC50: 1e-05 M
[2]; [10]
  AC50: 2.12e-06 M
[3]; [11]
  AC50: 8.93e-06 M
[4]; [12]
  AC50: 7.96e-08 M

## CCCN1C(CC(C)C)=N[S+](=O)([O-])c2cc(NC(=O)c3ccc(Br)c(F)c3)ccc21 [NCGC00531761-01]
[1]; [9]
  AC50: 7.96e-08 M
[2]; [10]
  AC50: 3.36e-06 M
[3]; [11]
  AC50: 1e-06 M
[4]; [12]
  AC50: 1.12e-06 M

## CCCN1C(CC(C)C)=N[S+](=O)([O-])c2cc(NC(=O)c3ccccc3C(F)(F)F)ccc21 [NCGC00531765-01]
[1]; [9]
  AC50: 1.17e-05 M
[2]; [10]
  AC50: 7.52e-06 M
[3]; [11]
  AC50: 1.17e-05 M
[4]; [12]
  AC50: 7.67e-06 M

## COc1ccc(-c2nc(C(C)C)nc3c2CCN(C(=O)c2ccccc2Cl)CC3)cc1 [NCGC00479503-01]
[1]; [9]
  AC50: 1.23e-05 M
[2]; [10]
  AC50: 1.58e-05 M
[3]; [11]
  AC50: 1.28e-05 M
[4]; [12]
  AC50: 2.28e-06 M

## CCCN1C(CC2CCCCC2)=N[S+](=O)([O-])c2cc(NC(=O)c3cccs3)ccc21 [NCGC00532404-01]
[1]; [9]
  AC50: 3.99e-06 M
[2]; [10]
  AC50: 1.5e-06 M
[3]; [11]
  AC50: 1.53e-06 M
[4]; [12]
  AC50: 9.66e-07 M

## COc1ccc(-c2nc(C(C)C)nc3c2CCN(C(=O)c2cccc(Cl)c2)CC3)cc1 [NCGC00479504-01]
[1]; [9]
  AC50: 1.19e-05 M
[2]; [10]
  AC50: 1.68e-05 M
[3]; [11]
  AC50: 1.61e-05 M
[4]; [12]
  AC50: 1.55e-05 M

## Cc1ccccc1C(=O)N1CCc2nc(C3CC3)nc(-c3ccc(O)cc3)c2CC1 [NCGC00480365-01]
[1]; [9]
  AC50: 1.38e-05 M
[2]; [10]
  AC50: 1.28e-05 M
[3]; [11]
  AC50: 1.81e-05 M
[4]; [12]
  AC50: 1.38e-05 M

## N[S+](=O)([O-])c1cc2c(cc1C(F)(F)F)NCN[S+]2(=O)[O-] [NCGC00016401-08]
[1]; [5]
  AC50: 3.56e-06 M
[2]; [6]
  AC50: 3.85e-06 M
[3]; [7]
  AC50: 3.56e-06 M
[4]; [8]
  AC50: 2.24e-05 M

## CCCN1C(CC(F)(F)F)=N[S+](=O)([O-])c2cc(NC(=O)c3cccs3)ccc21 [NCGC00532340-01]
[1]; [9]
  AC50: 7.1e-06 M
[2]; [10]
  AC50: 2e-06 M
[3]; [11]
  AC50: 7.1e-06 M
[4]; [12]
  AC50: 6.32e-06 M

## CCCN1C(Cc2ccccc2)=N[S+](=O)([O-])c2cc(NC(=O)c3ccc(F)cc3)ccc21 [NCGC00532338-01]
[1]; [9]
  AC50: 3.56e-07 M
[2]; [10]
  AC50: 7.67e-07 M
[3]; [11]
  AC50: 3.17e-06 M
[4]; [12]
  AC50: 8.93e-08 M
